Test results: patent US20190350955A1, “METHODS AND PHARMACEUTICAL COMPOSITIONS FOR THE TREATMENT OF CARDIOMYOPATHIES” (INSERM (Institut National de la Sante et de la Recherche …, priority 2016, published 2019)

How the values were obtained:
Format in all cases: in vivo, mouse
Lmna^WT/WT mice = test: Echocardiography in NR-diet wild type mice; settings: whatever the diet and the course of the treatment
Protocol: Mice were bred in an accredited animal facility (accreditation number: C-75-13-08). All experiments on mice were approved by the Comité d'éthique en expérimentation animate Charles Darwin No 5. Mice Lmna^H222P/H222P were backcrossed 8 times to 129S2/SvPasOrlRj strain mice to obtain pure genetic background. Male mice used for the studies were maintained under a 12 h light/12 h dark cycle at constant temperature (23° C.) with free access to food and water. Nicotinamide riboside (NR) complementation: Animals at 17 weeks of age were fed for 9 weeks with either a chow diet (A04: Scientific Animal Food & Engineering) or a chow diet complemented with 0.25% of NR (kindly provided by ChromaDex, Inc. California) corresponding to a dose of 400 mg/kg/day for a mouse weighing 25 g eating 4 g of food per day. […]
Mouse transthoracic echocardiography was performed using an ACUSON 128XP/10 ultrasound with a 11 Mhz linear probe (Mountain View).MHz transducer applied to the chest wall. […] The intra ventricular septum (IVS), LV posterior wall (LVPW), LV diameter (LVD) in diastole and systole, the percentage of fractional shortening (FS) and the heart rate (HR) were measured from the mean of at least three separate cardiac cycles. […]

TAC mice [1] = test: Myocardial NAD+ levels after TAC; settings: 6 weeks after TAC, NR treated TAC group vs non treated CD TAC group
Protocol: Transverse aorta constriction was performed in 2 month-old male mice under anesthesia (ketamine 100 mg/kg, xylazin 16 mg/kg). Skin was opened above the sternum and the upper part of the sternum was cut on a length of 2 mm allowing the mouse to breath without the need of a ventilator. A surgical suture was passed under the aortic cross between the right brachiocephalic (innominate) artery and left common carotid artery and a 27-½ gauge blunt needle was placed parallel to the wall of the aortic cross as a calibrator. Two loose knots were tied around the aortic cross and the needle. The first knot was quickly tied against the needle, followed by the second and the needle was promptly removed in order to produce a constriction of 0.4 mm in diameter. In sham, mice the procedure was the same except for the constriction of the aorta. NR treatment was started 2 days after the TAC or SHAM surgery.
Tissue frozen powder was resuspended in 75% ethanol, 25% HEPES 10 mM pH 7.1, buffer (20 μl/mg of tissue). Extracts were warmed 5 min at 80° C., then directly cold on ice and centrifuge 5 min at 16 000 g. Tissues extracts were normalized on the weight of tissue used for extraction. […] After adjustment of dilution factors, NADH levels were calculated by substracting the NAD^+ concentration to the non-heated ethanolic extract values: NADH=NADt (non heated)−NAD^+ (heated). […]

TAC mice [2] = test: Echocardiography after transverse aorta constriction (TAC); settings: NR enriched diet 400 mg/kg/day vs untreated TAC group
Protocol: Transverse aorta constriction was performed in 2 month-old male mice under anesthesia (ketamine 100 mg/kg, xylazin 16 mg/kg). Skin was opened above the sternum and the upper part of the sternum was cut on a length of 2 mm allowing the mouse to breath without the need of a ventilator. A surgical suture was passed under the aortic cross between the right brachiocephalic (innominate) artery and left common carotid artery and a 27-½ gauge blunt needle was placed parallel to the wall of the aortic cross as a calibrator. Two loose knots were tied around the aortic cross and the needle. […]
Echocardiography was performed on lightly anesthetized mice given isoflurane (induction with 2% isoflurane 100% O2. and maintained with 0.5% isoflurance 100% O2). Non-invasive measurements of left ventricular dimensions were evaluated using Doppler echocardiography (Vivid 7 Dimension/Vivid7 PRO; GE Medical Systems) with a probe ultrasound frequency range of 9-14 MHz. […] LV fractional shortening (FS) was calculated using the formula: (LVEDD−LVESD)/LVEDD×100. LV myocardial volume (LVV), LV end-diastolic volume (EDV), and end-systolic volume (ESV) were calculated using a half-ellipsoid model of the LV. From these volumes, LV ejection fraction (EF) was calculated using, the formula: (EDV−ESV)/EDV×100. H/R ratio was calculated by the formula (PWThd+IVSThd)/LVEDd.

Lmna^H222P/H222P mice = test: qPCR of cardiac remodeling markers Myh7, Nppa, Col1a2 in heart; settings: NR diet 9 weeks vs chow-diet
Protocol: Mice were bred in an accredited animal facility (accreditation number: C-75-13-08). All experiments on mice were approved by the Comité d'éthique en expérimentation animate Charles Darwin No 5. Mice Lmna^H222P/H222P were backcrossed 8 times to 129S2/SvPasOrlRj strain mice to obtain pure genetic background. Male mice used for the studies were maintained under a 12 h light/12 h dark cycle at constant temperature (23° C.) with free access to food and water. Nicotinamide riboside (NR) complementation: Animals at 17 weeks of age were fed for 9 weeks with either a chow diet (A04: Scientific Animal Food & Engineering) or a chow diet complemented with 0.25% of NR (kindly provided by ChromaDex, Inc. California) corresponding to a dose of 400 mg/kg/day for a mouse weighing 25 g eating 4 g of food per day. Nicotinamide (NAM) treatment: Animals at 17 weeks of age were injected intraperitoneally (IP) every two days (q.a.d.) for 9 weeks with either physiologic serum or physiologic serum added with NAM at 50 mg/ml corresponding to a dose of 500 mg/kg for a mouse weighing 25 g.
Total RNAs were extracted from around 5 mg of mouse heart using RNeasy Mini kit (Qiagen). RNAs integrity were controlled on the Bioanalyzer 2100 (Agilent). […] Relative mRNA transcript levels calculated using the 2^ΔCT method were normalized by comparison to housekeeping mRNA.

With `NC(=O)c1ccc[n+]([C@@H]2O[C@H](CO)[C@@H](O)[C@H]2O)c1` [NR, nicotinamide riboside] the “cardiac structure and function by echocardiography” value (Lmna^WT/WT mice) was “No difference”, the “myocardial NAD+ levels” value (TAC mice [1]) was “significantly higher” and the “drop in LVEF triggered by TAC” value (TAC mice [2]) was “limits”. The “thickening of the interventricular septum (IVSTh) triggered by TAC” value (TAC mice [2]) was “limits” and the “expression of Myh7, Nppa and Col1a2 (markers of cardiac remodeling)” value (Lmna^H222P/H222P mice) was “significant lowering”.
